Measurements: PubChem BioAssay (NCI)
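Five compound concentrations were applied to cells in 96-well plates for 48 hours; endpoints were derived by simple linear interpolation of the resulting dose-response curve. The concentration for 50% growth inhibition is given as GI50. Definition used: TGI = concentration required for complete inhibition of growth.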

How the values were obtained:
Experiment in all cases: NCI-60 cell line screen, 48 h
[1] = tested on: UACC-257 melanoma
[2] = tested on: SNB-75 CNS
[3] = tested on: SN12C renal
[4] = tested on: MCF7 breast
[5] = tested on: UO-31 renal
[6] = tested on: OVCAR-5 ovarian
[7] = tested on: RPMI-8226 leukemia
[8] = tested on: HCT-116 colon
[9] = tested on: HOP-92 NSCLC
[10] = tested on: KM12 colon
[11] = tested on: SK-MEL-2 melanoma
[12] = tested on: M14 melanoma
[13] = tested on: NCI/ADR-RES ovarian
[14] = tested on: OVCAR-8 ovarian
[15] = tested on: MDA-MB-435
[16] = tested on: A549 NSCLC
[17] = tested on: SK-MEL-5 melanoma
[18] = tested on: U251 CNS
[19] = tested on: SW-620 colon
[20] = tested on: HL-60(TB) leukemia
[21] = tested on: HT29 colon
[22] = tested on: COLO 205 colon
[23] = tested on: T-47D breast
[24] = tested on: TK-10 renal
[25] = tested on: IGROV1 ovarian
[26] = tested on: HCC-2998 colon
[27] = tested on: OVCAR-3 ovarian
[28] = tested on: HCT-15 colon
[29] = tested on: SF-268 CNS
[30] = tested on: NCI-H460 lung
[31] = tested on: MOLT-4 leukemia
[32] = tested on: UACC-62 melanoma
[33] = tested on: SK-MEL-28 melanoma
[34] = tested on: SNB-19 CNS
[35] = tested on: BT-549 breast
[36] = tested on: LOX IMVI melanoma
[37] = tested on: 786-0 renal
[38] = tested on: ACHN renal
[39] = tested on: SF-295 CNS
[40] = tested on: PC-3 prostate
[41] = tested on: MALME-3M melanoma
[42] = tested on: EKVX NSCLC
[43] = tested on: SR leukemia
[44] = tested on: CAKI-1 renal
[45] = tested on: A498 renal
[46] = tested on: NCI-H522 lung
[47] = tested on: K-562 leukemia
[48] = tested on: RXF 393 renal
[49] = tested on: MDA-MB-231 breast
[50] = tested on: OVCAR-4 ovarian
[51] = tested on: HOP-62 NSCLC
[52] = tested on: SF-539 CNS
[53] = tested on: NCI-H23 lung
[54] = tested on: DU-145 prostate
[55] = tested on: HS 578T breast
[56] = tested on: SK-OV-3 ovarian
[57] = tested on: CCRF-CEM leukemia
[58] = tested on: NCI-H226 lung

O=C1CCC/C=C\C[C@H]2C=CC(=O)/C2=C/C[C@H](CCc2cccc(C(F)(F)F)c2)O1
GI50 [1]: 2.11 µM | TGI [1]: 5.18 µM | GI50 [2]: 2.02 µM | TGI [2]: 5.21 µM | GI50 [3]: 3.66 µM | TGI [3]: 12.9 µM | GI50 [4]: 0.287 µM | TGI [4]: 2.58 µM | GI50 [5]: 1.57 µM | TGI [5]: 3 µM | GI50 [6]: 4.05 µM | TGI [6]: 11.3 µM | GI50 [7]: 0.628 µM | TGI [7]: 6.73 µM | GI50 [8]: 0.327 µM | TGI [8]: 1.48 µM | GI50 [9]: 2.29 µM | TGI [9]: 4.77 µM | GI50 [10]: 1.64 µM | TGI [10]: 3.35 µM | GI50 [11]: 2.06 µM | TGI [11]: 4.94 µM | GI50 [12]: 1.76 µM | TGI [12]: 5.32 µM | GI50 [13]: 0.748 µM | TGI [13]: 11.3 µM | GI50 [14]: 0.495 µM | TGI [14]: 5.64 µM | GI50 [15]: 0.462 µM | TGI [15]: 2.7 µM | GI50 [16]: 2.31 µM | TGI [16]: 5.56 µM | GI50 [17]: 1.69 µM | TGI [17]: 3.09 µM | GI50 [18]: 1.26 µM | TGI [18]: 2.85 µM | GI50 [19]: 2.87 µM | TGI [19]: 9.06 µM | GI50 [20]: 2.1 µM | TGI [20]: 6.88 µM | GI50 [21]: 1.11 µM | TGI [21]: 3.39 µM | GI50 [22]: 1.58 µM | TGI [22]: 4.16 µM | GI50 [23]: 1.78 µM | TGI [23]: 7.12 µM | GI50 [24]: 2.66 µM | TGI [24]: 5.19 µM | GI50 [25]: 3.06 µM | TGI [25]: 9.53 µM | GI50 [26]: 2.01 µM | TGI [26]: 3.54 µM | GI50 [27]: 1.46 µM | TGI [27]: 3.23 µM | GI50 [28]: 1.23 µM | TGI [28]: 4.07 µM | GI50 [29]: 2.77 µM | TGI [29]: 8.3 µM | GI50 [30]: 3.18 µM | TGI [30]: 10.1 µM | GI50 [31]: 2.14 µM | TGI [31]: 6.26 µM | GI50 [32]: 2.34 µM | TGI [32]: 7.52 µM | GI50 [33]: 2.56 µM | TGI [33]: 6.75 µM | GI50 [34]: 2.22 µM | TGI [34]: 7.04 µM | GI50 [35]: 2.57 µM | TGI [35]: 7.99 µM | GI50 [36]: 0.44 µM | TGI [36]: 1.82 µM | GI50 [37]: 1.99 µM | TGI [37]: 3.68 µM | GI50 [38]: 1.19 µM | TGI [38]: 2.6 µM | GI50 [39]: 2.15 µM | TGI [39]: 4.83 µM | GI50 [40]: 1.79 µM | TGI [40]: 4.74 µM | GI50 [41]: 2.25 µM | TGI [41]: 7.1 µM | GI50 [42]: 1.94 µM | TGI [42]: 4.08 µM | GI50 [43]: 0.627 µM | TGI [43]: 5.62 µM | GI50 [44]: 4.04 µM | TGI [44]: 16 µM | GI50 [45]: 1.68 µM | TGI [45]: 3.22 µM | GI50 [46]: 1.23 µM | TGI [46]: 3.77 µM | GI50 [47]: 0.692 µM | TGI [47]: 6.44 µM | GI50 [48]: 1.66 µM | TGI [48]: 3.08 µM | GI50 [49]: 4.41 µM | TGI [49]: 18.2 µM | GI50 [50]: 3.78 µM | TGI [50]: 15.9 µM | GI50 [51]: 2.84 µM | TGI [51]: 6.83 µM | GI50 [52]: 2.61 µM | TGI [52]: 6.81 µM | GI50 [53]: 2.16 µM | TGI [53]: 5.89 µM | GI50 [54]: 1.66 µM | TGI [54]: 4.58 µM | GI50 [55]: 4.78 µM | TGI [55]: 56.7 µM | GI50 [56]: 2.92 µM | TGI [56]: 7.75 µM | GI50 [57]: 0.397 µM | TGI [57]: 11.4 µM

Cc1ccc2cc3c(cc(C)c4ccccc43)c3c2c1CC3
GI50 [2]: 26.7 µM | TGI [2]: > 100 µM | GI50 [3]: > 100 µM | TGI [3]: > 100 µM | GI50 [4]: 35.2 µM | TGI [4]: > 100 µM | GI50 [5]: > 100 µM | TGI [5]: > 100 µM | GI50 [6]: > 100 µM | TGI [6]: > 100 µM | GI50 [7]: > 100 µM | TGI [7]: > 100 µM | GI50 [8]: > 100 µM | TGI [8]: > 100 µM | GI50 [9]: 17.4 µM | TGI [9]: 82.3 µM | GI50 [10]: > 100 µM | TGI [10]: > 100 µM | GI50 [11]: > 100 µM | TGI [11]: > 100 µM | GI50 [12]: > 100 µM | TGI [12]: > 100 µM | GI50 [13]: > 100 µM | TGI [13]: > 100 µM | GI50 [14]: > 100 µM | TGI [14]: > 100 µM | GI50 [15]: > 100 µM | TGI [15]: > 100 µM | GI50 [16]: > 100 µM | TGI [16]: > 100 µM | GI50 [17]: > 100 µM | TGI [17]: > 100 µM | GI50 [19]: > 100 µM | TGI [19]: > 100 µM | GI50 [21]: > 100 µM | TGI [21]: > 100 µM | GI50 [22]: > 100 µM | TGI [22]: > 100 µM | GI50 [23]: > 100 µM | TGI [23]: > 100 µM | GI50 [24]: 65.6 µM | TGI [24]: > 100 µM | GI50 [25]: > 100 µM | TGI [25]: > 100 µM | GI50 [26]: > 100 µM | TGI [26]: > 100 µM | GI50 [58]: > 100 µM | TGI [58]: > 100 µM | GI50 [27]: > 100 µM | TGI [27]: > 100 µM | GI50 [28]: > 100 µM | TGI [28]: > 100 µM | GI50 [29]: > 100 µM | TGI [29]: > 100 µM | GI50 [30]: > 100 µM | TGI [30]: > 100 µM | GI50 [31]: > 100 µM | TGI [31]: > 100 µM | GI50 [32]: > 100 µM | TGI [32]: > 100 µM | GI50 [33]: > 100 µM | TGI [33]: > 100 µM | GI50 [34]: > 100 µM | TGI [34]: > 100 µM | GI50 [35]: > 100 µM | TGI [35]: > 100 µM | GI50 [36]: > 100 µM | TGI [36]: > 100 µM | GI50 [37]: > 100 µM | TGI [37]: > 100 µM | GI50 [38]: 60.1 µM | TGI [38]: > 100 µM | GI50 [40]: > 100 µM | TGI [40]: > 100 µM | GI50 [41]: > 100 µM | TGI [41]: > 100 µM | GI50 [43]: 87.5 µM | TGI [43]: > 100 µM | GI50 [44]: > 100 µM | TGI [44]: > 100 µM | GI50 [45]: 76 µM | TGI [45]: > 100 µM | GI50 [46]: > 100 µM | TGI [46]: > 100 µM | GI50 [47]: > 100 µM | TGI [47]: > 100 µM | GI50 [48]: 57.2 µM | TGI [48]: > 100 µM | GI50 [49]: 48.2 µM | TGI [49]: > 100 µM | GI50 [50]: > 100 µM | TGI [50]: > 100 µM | GI50 [51]: 58.8 µM | TGI [51]: > 100 µM | GI50 [52]: > 100 µM | TGI [52]: > 100 µM | GI50 [53]: > 100 µM | TGI [53]: > 100 µM | GI50 [54]: > 100 µM | TGI [54]: > 100 µM | GI50 [55]: 89.1 µM | TGI [55]: > 100 µM | GI50 [56]: > 100 µM | TGI [56]: > 100 µM | GI50 [57]: > 100 µM | TGI [57]: > 100 µM
